# Assays:
# FAO1 or FAO2 = assay: Alcohols used for substrate specificity testing, activity detected with either enzyme; assay type: biochemical, Candida tropicalis; design: key: X: Activity detected using this substrate with either FAO1 or FAO2; details: final alcohol concentration 200 μM
# Source text: The assay procedure used is a modification of an assay used by Kemp et al (1). The assay is a two-enzyme coupled reaction. Dodecanol was used as the substrate for the FAO, which oxidizes the dodecanol to dodecanal. At the same time it reduces molecular oxygen to hydrogen peroxide. A second enzyme in the reaction mixture, peroxidase derived from horseradish (HRP), uses electrons obtained by oxidizing hydrogen peroxide to […] 2,2′-azino-bis(3-ethylbenzthiazoline-6-sulfonic acid) (ABTS) in the reaction mixture. […] absorbs strongly at 405 nm. The quality of HRP is important, since it has been observed that commercially obtained preparations vary in quality. It is necessary, therefore, to obtain preparations of highest purity. The HRP (Sigma #P8415) was made at a concentration of 2 mg/ml (≈250 units/mg) in 50 mM potassium phosphate buffer, pH 7.6.
# After adding the extract, the activity was generally read at 405 nm for one minute at room temperature. The amount of extract that was added to the reaction mixture was varied so that the activity fell within the range of 0.2 to 1.0 ΔA^405 nm/min. Alcohol oxidase activity was reported as specific activity units/mg protein (1 unit=μmole substrate oxidized/min). An extinction coefficient at 405 nm of 18.4 was used for ABTS and was equivalent to 0.5 mM oxidized substrate. In certain substrate-specificity experiments, 200 mM HEPES buffer, pH 7.6, containing 0.5% Triton X100 was used in place of the 200 mM HEPES buffer in the reaction mixture described above. The detergent aided in solubilizing some of the more water-insoluble substrates tested.
# FAO1, FAO2a and FAO2a′ were tested for their activity with various alcohols. The alcohols shown in Table 5 were prepared in 20 mM stock solutions in acetone. Alcohols showing activity with either FAO1 or FAO2a are indicated. The final concentration of the alcohol used in the substrate specificity experiment was 200 μM. These same alcohols were used to determine the Km and Vmax of FAO1, FAO2a, and FAO2a′. […] There was a big drop in activity in going from a C8 alcohol to a C6 alcohol with FAO1, FAO2a, and FAO2a′. FAO2a and FAO2a′ oxidize 2-octanols fairly well; however no activity was detected with FAO1. In contrast, FAO1 oxidizes ω-hydroxy fatty acids well, but no activity for ω-hydroxy fatty acids was measured with FAO2a and FAO2a′ (FIG. 6). […] Although the substrate specificity of FAO2b was not performed, due to the close homology with FAO2a, it is likely to be very similar.
# fatty alcohol oxidase = assay: FAO activity of extracts made from fermentor samples induced with HOSFFA; assay type: biochemical, Candida tropicalis; details: data not shown
# Source text: (§1) The assay is a two-enzyme coupled reaction. […] ABTS absorbs strongly at 405 nm.
# [1] = test system: FAO from C. tropicalis (ATCC 20336); details: cited from earlier work; for Oxidation by purified C. tropicalis FAO: purified enzyme (ref. 3); for Oxidation by C. tropicalis FAO (Kemp et al. 1988): cells grown on hexadecane
# FAO2a′ = FAO2a′ (Candida tropicalis, UniProt Q6QIR5); assay: FAO enzyme assay (HRP/ABTS coupled) with FAO2a′ (CTG-codon-altered FAO2a) expressed in E. coli: substrate specificity and Km; details: 200 μM alcohol; relative to dodecanol set at 100%; FIG. 4-6
# Chain of FAO2a′ (Q6QIR5 entry or part of it): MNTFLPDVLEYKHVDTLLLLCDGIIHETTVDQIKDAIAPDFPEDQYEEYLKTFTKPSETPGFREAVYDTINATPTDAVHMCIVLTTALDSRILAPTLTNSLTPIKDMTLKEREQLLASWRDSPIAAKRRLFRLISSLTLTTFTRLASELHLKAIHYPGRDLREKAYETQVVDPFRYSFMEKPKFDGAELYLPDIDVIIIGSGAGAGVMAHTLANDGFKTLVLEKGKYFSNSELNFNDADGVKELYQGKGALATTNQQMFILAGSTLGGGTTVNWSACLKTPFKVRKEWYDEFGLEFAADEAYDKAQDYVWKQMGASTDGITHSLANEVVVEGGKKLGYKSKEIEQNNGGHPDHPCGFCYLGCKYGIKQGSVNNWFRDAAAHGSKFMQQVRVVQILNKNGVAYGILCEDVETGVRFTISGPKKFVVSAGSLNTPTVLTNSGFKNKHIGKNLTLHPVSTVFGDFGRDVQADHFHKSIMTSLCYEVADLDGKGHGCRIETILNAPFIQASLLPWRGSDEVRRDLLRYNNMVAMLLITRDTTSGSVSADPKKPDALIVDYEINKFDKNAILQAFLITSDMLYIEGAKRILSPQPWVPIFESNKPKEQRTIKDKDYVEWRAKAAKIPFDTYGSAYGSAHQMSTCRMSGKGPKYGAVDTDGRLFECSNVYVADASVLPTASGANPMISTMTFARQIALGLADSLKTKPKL
# Procedure: The assay is a two-enzyme coupled reaction. […] At the same time it reduces molecular oxygen to hydrogen peroxide. A second enzyme in the reaction mixture, peroxidase derived from horseradish (HRP), uses electrons obtained by oxidizing hydrogen peroxide to reduce 2,2′-azino-bis(3-ethylbenzthiazoline-6-sulfonic acid) (ABTS) in the reaction mixture. Reduced ABTS absorbs strongly at 405 nm. […] The HRP (Sigma #P8415) was made at a concentration of 2 mg/ml (≈250 units/mg) in 50 mM potassium phosphate buffer, pH 7.6.
# Initially, only the properties of the enzyme derived from the native sequence of FAO2a were determined. […] The properties of both FAO2a and FAO2a′ were determined as described in the following examples.
# FAO1, FAO2a and FAO2a′ were tested for their activity with various alcohols. The alcohols shown in Table 5 were prepared in 20 mM stock solutions in acetone. […] The final concentration of the alcohol used in the substrate specificity experiment was 200 μM. These same alcohols were used to determine the Km and Vmax of FAO1, FAO2a, and FAO2a′.
# (§2) In this case, all reactions contained the same amount of acetone (20 μl/ml).
# FAO2a = FAO2a (Candida tropicalis, UniProt Q6QIR5, S177L); assay type: biochemical; details: for Activity of FAO2a with the alcohol (substrate specificity): 200 μM alcohol, relative to dodecanol set at 100%, FIG. 4-6; for Km FAO2a: pH 7.6, HEPES/Triton X-100 buffer, enzyme constant, alcohol concentration varied
# Chain of FAO2a (Q6QIR5 whole entry S177L): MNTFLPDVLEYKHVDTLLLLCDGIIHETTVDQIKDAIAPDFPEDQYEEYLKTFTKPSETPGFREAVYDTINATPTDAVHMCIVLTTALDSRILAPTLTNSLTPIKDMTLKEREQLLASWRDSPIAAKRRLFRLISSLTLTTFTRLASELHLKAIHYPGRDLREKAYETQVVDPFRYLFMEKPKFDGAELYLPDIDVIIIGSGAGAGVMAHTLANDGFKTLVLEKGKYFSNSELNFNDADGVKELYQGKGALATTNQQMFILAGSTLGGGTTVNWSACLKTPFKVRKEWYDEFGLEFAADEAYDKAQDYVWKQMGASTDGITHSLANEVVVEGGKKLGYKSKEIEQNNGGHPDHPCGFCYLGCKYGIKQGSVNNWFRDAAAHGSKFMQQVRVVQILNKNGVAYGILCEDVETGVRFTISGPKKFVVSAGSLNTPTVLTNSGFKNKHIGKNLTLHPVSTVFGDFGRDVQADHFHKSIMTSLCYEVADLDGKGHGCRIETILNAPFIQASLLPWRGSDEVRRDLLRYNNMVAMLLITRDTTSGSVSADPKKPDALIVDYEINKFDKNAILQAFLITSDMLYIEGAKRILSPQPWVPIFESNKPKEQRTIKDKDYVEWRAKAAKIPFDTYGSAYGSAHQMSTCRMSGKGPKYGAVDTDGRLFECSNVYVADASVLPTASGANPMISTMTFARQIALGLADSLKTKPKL
# Source text: as §1
# FAO1 = FAO1 (Candida tropicalis, UniProt Q6QIR6); assay: FAO enzyme assay (HRP/ABTS coupled) with FAO1 expressed in E. coli: substrate specificity and Km; details: for Activity of FAO1 with the alcohol (substrate specificity): 200 μM alcohol, relative to dodecanol set at 100%, FIG. 4-6
# Chain of FAO1 (Q6QIR6 entry or part of it): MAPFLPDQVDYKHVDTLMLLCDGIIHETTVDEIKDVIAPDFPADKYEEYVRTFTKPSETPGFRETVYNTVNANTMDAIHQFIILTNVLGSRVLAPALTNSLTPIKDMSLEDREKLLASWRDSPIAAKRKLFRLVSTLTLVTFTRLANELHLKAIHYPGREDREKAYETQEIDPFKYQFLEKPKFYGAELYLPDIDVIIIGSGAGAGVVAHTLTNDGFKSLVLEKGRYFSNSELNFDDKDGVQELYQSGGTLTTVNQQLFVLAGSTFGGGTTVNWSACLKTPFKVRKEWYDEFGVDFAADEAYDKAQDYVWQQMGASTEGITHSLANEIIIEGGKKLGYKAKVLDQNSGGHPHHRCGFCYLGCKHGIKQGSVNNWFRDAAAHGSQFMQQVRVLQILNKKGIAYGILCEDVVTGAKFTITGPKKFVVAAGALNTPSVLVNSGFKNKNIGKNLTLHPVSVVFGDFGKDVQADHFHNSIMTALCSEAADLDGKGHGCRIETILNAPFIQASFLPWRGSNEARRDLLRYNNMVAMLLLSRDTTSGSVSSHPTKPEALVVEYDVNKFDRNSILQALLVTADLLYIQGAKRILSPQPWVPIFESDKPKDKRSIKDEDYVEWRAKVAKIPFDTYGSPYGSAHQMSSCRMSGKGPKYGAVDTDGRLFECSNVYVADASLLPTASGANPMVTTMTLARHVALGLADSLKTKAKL
# Source text: as §1
# FAO from C. maltosa = details: cited from earlier work
# C=CCCCCCCCCCO = assay: purified protein, by the assay type
# CCCCCCCCCCCCCCO = assay: purified protein, by the assay type
# OCCCCCCCCCCO = assay: purified protein, by the assay type
# CCCCCCCCCCCCO = assay: purified protein, by the assay type
# OCCCCCCCCCCCCCCCCO = assay: purified protein, by the assay type
# CCCCCCCCCCCCCCCCO = assay: purified protein, by the assay type
# CCCCCCCCCCO = assay: purified protein, by the assay type
# O=C(O)CCCCCCCCCCCCCCCO = assay: purified protein, by the assay type; details: other: pH 7.6, HEPES/Triton X-100 buffer, enzyme constant, alcohol concentration varied
# Source text: The assay is a two-enzyme coupled reaction. […] At the same time it reduces molecular oxygen to hydrogen peroxide. A second enzyme in the reaction mixture, peroxidase derived from horseradish (HRP), uses electrons obtained by oxidizing hydrogen peroxide to reduce 2,2′-azino-bis(3-ethylbenzthiazoline-6-sulfonic acid) (ABTS) in the reaction mixture. Reduced ABTS absorbs strongly at 405 nm. The quality of HRP is important, since it has been observed that commercially obtained preparations vary in quality. It is necessary, therefore, to obtain preparations of highest purity. The HRP (Sigma #P8415) was made at a concentration of 2 mg/ml (≈250 units/mg) in 50 mM potassium phosphate buffer, pH 7.6.
# FAO1, FAO2a and FAO2a′ were tested for their activity with various alcohols. […] The final concentration of the alcohol used in the substrate specificity experiment was 200 μM. These same alcohols were used to determine the Km and Vmax of FAO1, FAO2a, and FAO2a′.
# as §2
# CCCCCCCCO = assay: purified protein, by the assay type
# CCCCCCCCC(C)O = assay: purified protein, by the assay type
# CCCCCCCCCCCCCCC(C)O = assay: purified protein, by the assay type
# CCCCCCCCCCC(O)CO = assay: purified protein, by the assay type
# CCCCCCCCCCC(C)O = assay: purified protein, by the assay type
# CCCCCCCCCC(C)O = assay: purified protein, by the assay type
# [2] = other: pH 7.6, HEPES/Triton X-100 buffer, enzyme constant, alcohol concentration varied
# [3] = other: 0.1 M HEPES, pH 7.6, substrate stocks in acetone (20 μl/ml)
molecule,measurement,setting,value
16-Hydroxydodecanoic acid,Activity Detected,FAO1 or FAO2,X
"CCCCCCCCCCC(O)CO (centres unmarked) [1,2-Dodecanediol]",Activity Detected,FAO1 or FAO2,X
"CCCCCCC(O)CO (centres unmarked) [1,2-Octanediol]",Activity Detected,FAO1 or FAO2,X
"OCCCCCCCCCCO [1,10-Decanediol]",Activity Detected,FAO1 or FAO2,X
"OCCCCCCCCCCCCCCCCO [1,16-Hexadecanediol]",Activity Detected,FAO1 or FAO2,X
CCCCCCCCC(C)O (centres unmarked) [2-Decanol],Activity Detected,FAO1 or FAO2,X
CCCCCCCCCCC(C)O (centres unmarked) [2-Dodecanol],Activity Detected,FAO1 or FAO2,X
same,Activity of extracts from HOSFFA-induced fermentor samples with the alcohol,fatty alcohol oxidase,no activity
same,Oxidation by purified C. tropicalis FAO,[1],additional activity
CCCCCCCCCCCCCCC(C)O (centres unmarked) [2-Hexadecanol],Activity Detected,FAO1 or FAO2,X
CCCCCCCCCC(C)O (centres unmarked) [2-Undecanol],Activity Detected,FAO1 or FAO2,X
O=C(O)CCCCCCCCCO [10-Hydroxydecanoic acid],Activity Detected,FAO1 or FAO2,X
C=CCCCCCCCCCO [10-Undecen-1-ol],Activity Detected,FAO1 or FAO2,X
same,Activity of FAO2a′ with the alcohol (substrate specificity),FAO2a′,much better than FAO1
same,Activity of FAO2a with the alcohol (substrate specificity),FAO2a,much better than FAO1
O=C(O)CCCCCCCCCCCO [12-Hydroxydodecanoic acid],Activity Detected,FAO1 or FAO2,X
same,Oxidation by C. tropicalis FAO (Kemp et al. 1988),[1],not
same,Oxidation by purified C. tropicalis FAO,[1],additional activity
"O=C(O)CCCCCCCCCCCCCCCO [16-hydroxy-hexadecanoic, 16-hydroxyhexadecanoic acid]",Activity of extracts from HOSFFA-induced fermentor samples with the alcohol,fatty alcohol oxidase,good activity
same,Km FAO1,"FAO1; pH 7.6, HEPES/Triton X-100 buffer, enzyme constant, alcohol concentration varied",lowest Km value
same,Oxidation by C. maltosa FAO,FAO from C. maltosa,fairly low rates of oxidation
same,Oxidation by C. tropicalis FAO (Kemp et al. 1988),[1],oxidize
CCCCCCCCCCO [Decanol],Activity Detected,FAO1 or FAO2,X
CCCCCCCCCCCCO [Dodecanol],Activity Detected,FAO1 or FAO2,X
same,Activity of FAO2a′ with the alcohol (substrate specificity),FAO2a′,preferred 1-dodecanol above all other 1-alkanols
same,Activity of FAO2a with the alcohol (substrate specificity),FAO2a,preferred 1-dodecanol above all other 1-alkanols
same,Km FAO2a,FAO2a,lowest Km values
same,Oxidation by C. tropicalis FAO (Kemp et al. 1988),[1],maximal activity
CCCCCCCCCCCCCCCCO [Hexadecanol],Activity Detected,FAO1 or FAO2,X
CCCCCCO [Hexanol],Activity Detected,FAO1 or FAO2,X
CCCCCCCCO [Octanol],Activity Detected,FAO1 or FAO2,X
same,Activity of FAO1 with the alcohol (substrate specificity),FAO1,preferred 1-octanol as substrate
same,Oxidation by C. maltosa FAO,FAO from C. maltosa,highest activity
CCCCCCCCCCCCCCO [Tetradecanol],Activity Detected,FAO1 or FAO2,X
same,Activity of FAO1 with the alcohol (substrate specificity),FAO1,the preferred longer-chain alcohol
same,Km FAO2a,FAO2a,lowest Km values
FAO1 (Candida tropicalis),Km,C=CCCCCCCCCCO; [2],9.9 μM μM
same,Km,CCCCCCCCCCCCCCO; [2],28.1 μM μM
same,Km,OCCCCCCCCCCO; [2],67.0 μM μM
same,Km,CCCCCCCCCCCCO; [2],14.9 μM μM
same,Km,OCCCCCCCCCCCCCCCCO; [2],10.3 μM μM
same,Km,CCCCCCCCCCCCCCCCO; [2],11.9 μM μM
same,Km,CCCCCCCCCCO; [2],15.1 μM μM
same,Km,O=C(O)CCCCCCCCCCCCCCCO,7.4 μM μM
same,Km,CCCCCCCCO; [2],41.0 μM μM
FAO2a (Candida tropicalis; S177L),Km,C=CCCCCCCCCCO; [2],45 µM
same,Km,CCCCCCCCC(C)O; [2],934 µM
same,Km,CCCCCCCCCCCCCCO; [2],4.6 µM
same,Km,CCCCCCCCCCCCCCC(C)O; [2],350 µM
same,Km,OCCCCCCCCCCO; [2],425 µM
same,Km,CCCCCCCCCCCCO; [2],2.5 µM
same,Km,OCCCCCCCCCCCCCCCCO; [2],37.3 µM
same,Km,CCCCCCCCCCCCCCCCO; [2],56 µM
same,Km,CCCCCCCCCCO; [2],74 µM
same,Km,CCCCCCCCCCC(O)CO; [2],998 µM
same,Km,CCCCCCCCCCC(C)O; [2],41.3 µM
same,Km,CCCCCCCCCC(C)O; [2],141 µM
same,Km,CCCCCCCCO; [2],503 µM
FAO2a′ (Candida tropicalis),Km,C=CCCCCCCCCCO; [3],36.1 µM
same,Km,CCCCCCCCC(C)O; [3],1090 µM
same,Km,CCCCCCCCCCCCCCO; [3],2.4 µM
same,Km,CCCCCCCCCCCCCCC(C)O; [3],720 µM
same,Km,OCCCCCCCCCCO; [3],1607 µM
same,Km,CCCCCCCCCCCCO; [3],4.4 µM
same,Km,OCCCCCCCCCCCCCCCCO; [3],16.3 µM
same,Km,CCCCCCCCCCCCCCCCO; [3],85 µM
same,Km,CCCCCCCCCCO; [3],69.6 µM
same,Km,CCCCCCCCCCC(O)CO; [3],928 µM
same,Km,CCCCCCCCCCC(C)O; [3],75.3 µM
same,Km,CCCCCCCCCC(C)O; [3],162 µM
same,Km,CCCCCCCCO; [3],654 µM

# Reference: patent US7160708B2, “Fatty alcohol oxidase genes and proteins from Candida tropicalis and methods relating thereto” (Cognis Corporation, priority 2002, dated 2007)
